Laboratory results: patent publication US20100168099A1, “1H-QUINOLIN-4-ONE COMPOUNDS, WITH AFFINITY FOR THE GABA RECEPTOR, PROCESSES, USES AND COMPOSITIONS” (FERRER INTERNACIONAL, S.A., priority 2006, published 2010)

Legend:
α1-GABAA receptor = experiment: Ligand-binding assay, radiolabeled flumazenil competition, cerebellum membranes; parameters: species or system rat; settings: rat cerebellum membranes, radiolabeled flumazenil 1 nM
Procedure: (§1) a) Ligand-binding Assays. Determination of the Affinity of Test Compounds for α1- and α2-GABAA, Receptor
(§2) Male Sprague-Dawley rats weighing 200-250 g at the time of experiment were used. After decapitation of the animal, the cerebellum (tissue that mostly contains α1-GABAA receptor) and spinal cord (tissue that mostly contains α2-GABAA receptor) were removed. The membranes were prepared according to the method by J. Lameh et al. (Prog. Neuro-Psychopharmacol. Biol. Psychiatry, 24, 979-991, 2000) and H. Noguchi et al. (Eur J Pharm, 434, 21-28, 2002) with slight modifications. Once the tissues weighed, they were suspended in 50 mM Tris.HCl (pH 7.4), 1:40 (v/v), or sucrose 0.32 M in the case of spinal cord, homogenized and then centrifuged at 20,000 g for 10 min at 7° C. The resulting pellet was resuspended under the same conditions and centrifuged again. The pellet was finally resuspended on a minimum volume and kept at −80° C. overnight. On the next day, the process was repeated until the final pellet was resuspended at a ratio of 1:10 (v/v) in the case of cerebellum and at a ratio of 1:5 (v/v) in the case of spinal cord.
(§3) Affinity was determined by competitive tests using radiolabeled flumazenil as ligand. The tests were performed according to the methods described by S. Arbilla et al. (Eur. J. Pharmacol., 130, 257-263, 1986); and Y. Wu et al. (Eur. J. Pharmacol., 278, 125-132, 1995) using 96-well microtiter plates. The membranes containing the study receptors, flumazenil (radiolabeling at a final concentration of 1 nM) and ascending concentrations of test compounds (in a total volume of 230 μL in 50 mM [pH 7.4] Tris.HCl buffer) were incubated. Simultaneously, the membranes were only incubated with the radiolabeled flumazenil (total binding, 100%) and in the presence of an elevated concentration of unradiolabeled flumazenil (non-specific binding, % estimation of radiolabeled ligand). The reactions started on adding the radiolabeled ligand followed by incubation for 60 minutes at 4° C. At the end of the incubation period, 200 μL of reaction were transferred to a multiscreen plate (Millipore) and filtered using a vacuum manifold and then washed three times with cold test buffer. The multiscreen plates were equipped with a GF/B filter that retained the membranes containing the receptors and the radiolabeled ligand which had been bound to the receptors. After washing, the plates were left till dry. Once dried, scintillation liquid was added and left under stirring overnight. The next day the plates were counted using a Perkin-Elmer Microbeta scintillation counter.
(§4) For analysis of the results the percentage of specific binding for every concentration of test compound was calculated as follows:
(§5) % specific binding=(X−N/T−N)×100
(§6) where, X: amount of bound ligand for every concentration of compound. T: total binding, maximum amount bound to the radiolabeled ligand. N: non-specific binding, amount of radiolabeled ligand bound in a non-specific way irrespective of the receptor used.
(§7) Every concentrations of compound were tested in triplicate and their mean values were used to determine the experimental values of % specific binding versus the concentration of compound. Affinity data are expressed as % inhibition at 10^−5M and 10^−7M concentrations.

α2-GABAA receptor = experiment: Ligand-binding assay, radiolabeled flumazenil competition, spinal cord membranes; parameters: species or system rat; settings: for Affinity for the α2-subunit of the GABAA receptor, % inhibition: rat spinal cord membranes, radiolabeled flumazenil 1 nM
Procedure: as §1, §2, §3, §4, §5, §6, §7

[1] = test system: spontaneous motor activity of male CD1 mice; experiment: In vivo predictive sedation-hypnosis test (traveled distance); settings: Mus musculus, ip, 0.5 h, 98 μmol/kg, single intraperitoneal dose, 30 minutes after dosing (first 5 min discarded), versus control
Procedure: b) In Vivo Determination of Predictive Sedative-Hypnotic Action
The in vivo effects of these compounds were assessed by a predictive sedation-hypnosis test in mice (D. J. Sanger et al., Eur. J. Pharmacol., 313, 35-42, 1996; and G. Griebel et al., Psychopharmacology, 146, 205-213, 1999).
Groups of 5-8 male CD1 mice, weighing 22-26 g at the time of test, were used. The test compounds were administered in single equimolecular intraperitoneal doses, suspended in 0.25% agar with one drop of Tween in a volume of 10 mL/kg. Control animals received the vehicle alone. Using a Smart System (Panlab, S. L., Spain) the traveled distance in cm was recorded for each mouse at 5 min intervals during a period of 30 minutes after dosing. The inhibition percentage traveled distance of treated animals versus control animals (the first 5 min were discarded) was calculated.

Row | SMILES | Affinity for the α1-subunit of the GABAA receptor, % inhibition (α1-GABAA receptor; 10^−5M) | Affinity for the α1-subunit of the GABAA receptor, % inhibition (α1-GABAA receptor; 10^−7M) | Affinity for the α2-subunit of the GABAA receptor, % inhibition (α2-GABAA receptor; 10^−5M) | Affinity for the α2-subunit of the GABAA receptor, % inhibition (α2-GABAA receptor; 10^−7M) | affinity for the α2-subunit of GABAA receptor (in words) (α2-GABAA receptor; compared with zolpidem where stated) | inhibition in vivo at 98 µmol/kg [1]
1 | C=CCN(CC=C)C(=O)Cn1cc(-c2ccccc2)c(=O)c2ccc(C)cc21 [Example 43, N,N-Diallyl-2-(7-methyl-4-oxo-3-phenyl-4H-quinolin-1-yl)-acetamide] | 99.0% | 49.9% | 88.2% | 12.5% | higher affinity than prior art compound zolpidem | 91%
2 | CCCN(CCC)C(=O)Cn1cc(-c2ccccc2)c(=O)c2ccccc21 [Example 47, 2-(4-Oxo-3-phenyl-4H-quinolin-1-yl)-N,N-dipropyl-acetamide] | 88.1% | 2.3% | 68.9% | 0.0% |  | 74.7%
3 | COc1ccc(NC(=O)Cn2cc(-c3ccc(OC)cc3)c(=O)c3ccc(C)cc32)cc1 [Example 80, N-(4-Methoxy-phenyl)-2-[3-(4-methoxy-phenyl)-7-methyl-4-oxo-4H-quinolin-1-yl]acetamide] | 78.5% | 28.5% | 65.1% | 15.7% |  | 71.9%
4 | C=CCN(CC=C)C(=O)Cn1cc(-c2ccc(OC)cc2)c(=O)c2ccc(C)cc21 [Example 97, N,N-Diallyl-2-[3-(4-methoxy-phenyl)-7-methyl-4-oxo-4H-quinolin-1-yl]-acetamide] | 90.7% | 4.9% | 62.0% | 0.0% |  | 76.8%
5 | Cc1ccc(-c2nc3ccc(C)cn3c2CC(=O)N(C)C)cc1 [zolpidem, reference compound] | 99.8% | 51.9% | 74.1% | 19.9% |  | 91.7%
